# Measurements taken from patent US20240148821A1, “PHARMACEUTICAL USE OF CYCLIC PEPTIDE COMPOUND” (CHUGAI SEIYAKU KABUSHIKI KAISHA, priority 2021, published 2024).
# Numbered stars: 1 amine (or outer) side, 2 acyl side, 3 side chain; on linkers, the order of the positions; unused ones are H or OH. Bridge positions count the residues as written; N and C are the ends. Square brackets hold non-standard residues; d marks the D form. Peptide text beside a SMILES is read from it. * marks the point of attachment. hPhe(3-Cl-4-CF3) = N[C@@H](CCc1ccc(C(F)(F)F)c(Cl)c1)C(=O)O; NMePhe(4-CF3) = CN[C@@H](Cc1ccc(C(F)(F)F)cc1)C(=O)O; NMePhe(4-Me) = CN[C@@H](Cc1ccc(C)cc1)C(=O)O; NMedβ3hAla = C[C@H](CC(=O)[*:2])N(C)[*:1]; NMeGly(cPent) = CN[C@H](C(=O)O)C1CCCC1; NMe3Pal = CN[C@@H](Cc1cccnc1)C(=O)O; NMeCha = CN[C@@H](CC1CCCCC1)C(=O)O; Hyp = O=C(O)[C@@H]1C[C@@H](O)CN1; NMeAhp(2) = CCCCC[C@H](NC)C(=O)O; NMeChg = CN[C@H](C(=O)O)C1CCCCC1; NMeF = CN[C@@H](Cc1ccccc1)C(=O)O; NMeI = CC[C@H](C)[C@H](NC)C(=O)O; NMeD = CN[C@@H](CC(=O)O)C(=O)O; dNMeD = CN[C@H](CC(=O)O)C(=O)O; NMeL = CN[C@@H](CC(C)C)C(=O)O; NMeNle = CCCC[C@H](NC)C(=O)O; NMeV = CN[C@H](C(=O)O)C(C)C; d(β3hA) = C[C@@H](N)CC(=O)O; NMeS = CN[C@@H](CO)C(=O)O; Morpholide = C1CN(*)CCO1; NMeA = CN[C@@H](C)C(=O)O; Piperidide = C1CCN(*)CC1; Pyrrolidide = C1CCN(*)C1; dNMeA = CN[C@H](C)C(=O)O; Ac5c = NC1(C(=O)O)CCCC1; Aze = O=C(O)[C@@H]1CCN1; Cyclopropyl = C1CC1*; Sar = CNCC(=O)O; Propyl = CCC*
# Molecular target: protein-protein interaction between Kras and SOS1 (biotin-tagged human Kras loaded with GDP, His-tagged human SOS1) (Homo sapiens (Human), UniProt P01116, G12D)
# Test: Protein-protein interaction inhibition between Kras and SOS1 (KrasG12D-SOS PPI) using AlphaScreen;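 further: kras produced in E. coli, Ni-coupled donor beads and streptavidin acceptor beads, excitation 680 nm with emission detected at 520–620 nm via singlet oxygen transfer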
# Format: biochemical
# Details: AlphaScreen; biotin-tagged human Kras loaded with GDP, His-tagged human SOS1; read-out: KRAS G12D-SOS PPI IC50
row,Structure (SMILES),IC50 [nM]
1,CC[C@H](C)[C@@H]1NC(=O)[C@H](CC(C)C)N(C)C(=O)C[C@@H](C(=O)N(C)C)N(C)C(=O)[C@H](C2CCCCC2)N(C)C(=O)C2(CCCC2)NC(=O)[C@@H]2CCCN2C(=O)[C@H](CCc2ccc(C(F)(F)F)c(Cl)c2)NC(=O)CN(C)C(=O)[C@H](Cc2ccc(C)cc2)N(C)C(=O)[C@@H]2CCN2C(=O)[C@H](C)N(C)C1=O [Compound 1685] ([NMeL]I[NMeA][Aze][NMePhe(4-Me)][Sar][hPhe(3-Cl-4-CF3)]P[Ac5c][NMeChg][NMeD]-NMe2; lactam N-11),0.6
2,CC[C@H](C)[C@@H]1NC(=O)[C@H](CC(C)C)N(C)C(=O)C[C@@H](C(=O)N2CCCC2)N(C)C(=O)[C@H](C2CCCCC2)N(C)C(=O)C2(CCCC2)NC(=O)[C@H](Cc2cccnc2)N(C)C(=O)[C@H](CCc2ccc(C(F)(F)F)c(Cl)c2)NC(=O)CN(C)C(=O)[C@H](CC2CCCCC2)N(C)C(=O)CN(C)C(=O)CN(C)C1=O [Compound 1693] ([NMeL]I[Sar][Sar][NMeCha][Sar][hPhe(3-Cl-4-CF3)][NMe3Pal][Ac5c][NMeChg][NMeD]-Pyrrolidide; lactam N-11),1.7
3,CCCCC[C@H]1C(=O)N[C@@H]([C@@H](C)CC)C(=O)N(C)[C@@H](C)C(=O)N2CC[C@H]2C(=O)N(C)[C@@H](CC2CCCCC2)C(=O)N(C)CC(=O)N[C@@H](CCc2ccc(C(F)(F)F)c(Cl)c2)C(=O)N2CCC[C@H]2C(=O)NC2(CCCC2)C(=O)N(C)[C@@H](C(C)C)C(=O)N(C)[C@H](C(=O)N2CCCCC2)CC(=O)N1C [Compound 1705] ([NMeAhp(2)]I[NMeA][Aze][NMeCha][Sar][hPhe(3-Cl-4-CF3)]P[Ac5c][NMeV][NMeD]-Piperidide; lactam N-11),9.8
4,CCCC[C@H]1C(=O)N(C)CC(=O)N[C@@H](CCc2ccc(C(F)(F)F)c(Cl)c2)C(=O)N2CCC[C@H]2C(=O)NC2(CCCC2)C(=O)N(C)[C@@H](C(C)C)C(=O)N(C)[C@H](C(=O)N2CCCCC2)CC(=O)N(C)[C@@H](CC(C)C)C(=O)N[C@@H]([C@@H](C)CC)C(=O)N(C)[C@@H](C)C(=O)N2CC[C@H]2C(=O)N1C [Compound 1712] ([NMeL]I[NMeA][Aze][NMeNle][Sar][hPhe(3-Cl-4-CF3)]P[Ac5c][NMeV][NMeD]-Piperidide; lactam N-11),9.8
5,CC[C@H](C)[C@@H]1NC(=O)[C@H](CC(C)C)N(C)C(=O)C[C@@H](C)N(C)C(=O)[C@H](C2CCCC2)N(C)C(=O)C2(CCCC2)NC(=O)[C@@H]2CCCN2C(=O)[C@H](CCc2ccc(C(F)(F)F)c(Cl)c2)NC(=O)CN(C)C(=O)[C@H](CC2CCCCC2)N(C)C(=O)[C@@H]2CCN2C(=O)[C@H](C)N(C)C1=O [Compound 1717] (cyclo([Ac5c][NMeGly(cPent)][NMedβ3hAla][NMeL]I[NMeA][Aze][NMeCha][Sar][hPhe(3-Cl-4-CF3)]P)),3.3
6,CC[C@H](C)[C@@H]1NC(=O)[C@H](CC(C)C)N(C)C(=O)C[C@@H](C(=O)N2CCCCC2)N(C)C(=O)[C@H]([C@@H](C)CC)N(C)C(=O)C2(CCCC2)NC(=O)[C@@H]2CCCN2C(=O)[C@H](CCc2ccc(C(F)(F)F)c(Cl)c2)NC(=O)CN(C)C(=O)[C@H](CC2CCCCC2)N(C)C(=O)[C@@H]2CCN2C(=O)[C@H](C)N(C)C1=O [Compound 1722] ([NMeL]I[NMeA][Aze][NMeCha][Sar][hPhe(3-Cl-4-CF3)]P[Ac5c][NMeI][NMeD]-Piperidide; lactam N-11),2.8
7,CC[C@H](C)[C@@H]1NC(=O)[C@H](CC(C)C)N(C)C(=O)C[C@@H](C(=O)N2CCCCC2)N(C)C(=O)[C@H]([C@@H](C)CC)N(C)C(=O)C2(CCCC2)NC(=O)[C@@H]2CCCN2C(=O)[C@H](CCc2ccc(C(F)(F)F)c(Cl)c2)NC(=O)CN(C)C(=O)[C@H](Cc2ccc(C)cc2)N(C)C(=O)[C@@H]2CCN2C(=O)[C@H](C)N(C)C1=O [Compound 1727] ([NMeL]I[NMeA][Aze][NMePhe(4-Me)][Sar][hPhe(3-Cl-4-CF3)]P[Ac5c][NMeI][NMeD]-Piperidide; lactam N-11),1.2
8,CC[C@H](C)[C@@H]1NC(=O)[C@H](CC(C)C)N(C)C(=O)C[C@@H](C(=O)N2CCCCC2)N(C)C(=O)[C@H](C(C)C)N(C)C(=O)C2(CCCC2)NC(=O)[C@@H]2CCCN2C(=O)[C@H](CCc2ccc(C(F)(F)F)c(Cl)c2)NC(=O)CN(C)C(=O)[C@H](C(C)C)N(C)C(=O)[C@@H]2CCN2C(=O)[C@H](C)N(C)C1=O [Compound 1737] ([NMeL]I[NMeA][Aze][NMeV][Sar][hPhe(3-Cl-4-CF3)]P[Ac5c][NMeV][NMeD]-Piperidide; lactam N-11),8.3
9,CCO[C@@H]1C[C@H]2C(=O)NC3(CCCC3)C(=O)N(C)[C@@H](CC(C)C)C(=O)N(C)[C@H](C(=O)N3CCCC3)CC(=O)N(C)[C@@H](CC(C)C)C(=O)N[C@@H]([C@@H](C)CC)C(=O)N(C)CC(=O)N(C)CC(=O)N(C)[C@@H](CC3CCCCC3)C(=O)N(C)CC(=O)N[C@@H](CCc3ccc(C(F)(F)F)c(Cl)c3)C(=O)N2C1 [Compound 1748] ([NMeL]I[Sar][Sar][NMeCha][Sar][hPhe(3-Cl-4-CF3)][Hyp](Et)[Ac5c][NMeL][NMeD]-Pyrrolidide; lactam N-11),0.61
10,CC[C@H](C)[C@@H]1NC(=O)[C@H](CC(C)C)N(C)C(=O)C[C@@H](C(=O)N2CCOCC2)N(C)C(=O)[C@H](C(C)C)N(C)C(=O)C2(CCCC2)NC(=O)[C@@H]2CCCN2C(=O)[C@H](CCc2ccc(C(F)(F)F)c(Cl)c2)NC(=O)CN(C)C(=O)[C@H](CC2CCCCC2)N(C)C(=O)[C@@H]2CCN2C(=O)CN(C)C1=O [Compound 1758] ([NMeL]I[Sar][Aze][NMeCha][Sar][hPhe(3-Cl-4-CF3)]P[Ac5c][NMeV][NMeD]-Morpholide; lactam N-11),1.2
11,CCCOC[C@H]1C(=O)N[C@@H]([C@@H](C)CC)C(=O)N(C)[C@@H](C)C(=O)N2CC[C@H]2C(=O)N(C)[C@@H](CC2CCCCC2)C(=O)N(C)CC(=O)N[C@@H](CCc2ccc(C(F)(F)F)c(Cl)c2)C(=O)N2CCC[C@H]2C(=O)NC2(CCCC2)C(=O)N(C)[C@@H](C(C)C)C(=O)N(C)[C@H](C(=O)N2CCCCC2)CC(=O)N1C [Compound 1763] ([NMeS](Propyl)I[NMeA][Aze][NMeCha][Sar][hPhe(3-Cl-4-CF3)]P[Ac5c][NMeV][NMeD]-Piperidide; lactam N-11),4.5
12,CC[C@H](C)[C@@H]1NC(=O)[C@H](COC2CC2)N(C)C(=O)C[C@@H](C(=O)N2CCCCC2)N(C)C(=O)[C@H](C(C)C)N(C)C(=O)C2(CCCC2)NC(=O)[C@@H]2CCCN2C(=O)[C@H](CCc2ccc(C(F)(F)F)c(Cl)c2)NC(=O)CN(C)C(=O)[C@H](CC2CCCCC2)N(C)C(=O)[C@@H]2CCN2C(=O)[C@H](C)N(C)C1=O [Compound 1764] ([NMeS](Cyclopropyl)I[NMeA][Aze][NMeCha][Sar][hPhe(3-Cl-4-CF3)]P[Ac5c][NMeV][NMeD]-Piperidide; lactam N-11),3.2
13,CC[C@H](C)[C@@H]1NC(=O)[C@H](CC(C)C)N(C)C(=O)C[C@H](C(=O)N2CCCC2)N(C)C(=O)[C@H](C2CCCC2)N(C)C(=O)C2(CCCC2)NC(=O)[C@@H]2CCCN2C(=O)[C@H](CCc2ccc(C(F)(F)F)c(Cl)c2)NC(=O)CN(C)C(=O)[C@H](Cc2ccc(C(F)(F)F)cc2)N(C)C(=O)[C@@H]2CCN2C(=O)[C@H](C)N(C)C1=O [Compound 1765] ([NMeL]I[NMeA][Aze][NMePhe(4-CF3)][Sar][hPhe(3-Cl-4-CF3)]P[Ac5c][NMeGly(cPent)][dNMeD]-Pyrrolidide; lactam N-11),74
14,CC[C@H](C)[C@@H]1NC(=O)[C@H](C(C)C)N(C)C(=O)C[C@@H](C(=O)N2CCCCC2)N(C)C(=O)[C@H](C(C)C)N(C)C(=O)C2(CCCC2)NC(=O)[C@@H]2CCCN2C(=O)[C@H](CCc2ccc(C(F)(F)F)c(Cl)c2)NC(=O)CN(C)C(=O)[C@H](CC2CCCCC2)N(C)C(=O)[C@@H]2CCN2C(=O)[C@H](C)N(C)C1=O [Compound 1767] ([NMeV]I[NMeA][Aze][NMeCha][Sar][hPhe(3-Cl-4-CF3)]P[Ac5c][NMeV][NMeD]-Piperidide; lactam N-11),7.2
15,CC[C@H](C)[C@@H]1NC(=O)[C@H](C)N(C)C(=O)C[C@@H](C)N(C)C(=O)[C@H](C(C)C)N(C)C(=O)C2(CCCC2)NC(=O)[C@@H]2CCCN2C(=O)[C@H](CCc2ccc(C(F)(F)F)c(Cl)c2)NC(=O)[C@@H](C)N(C)C(=O)[C@H](CC2CCCCC2)N(C)C(=O)[C@@H]2CCN2C(=O)[C@H](C)N(C)C1=O [Compound 1773] (cyclo([Ac5c][NMeV][NMedβ3hAla][NMeA]I[NMeA][Aze][NMeCha][dNMeA][hPhe(3-Cl-4-CF3)]P)),51
16,CC[C@H](C)[C@@H]1NC(=O)[C@H](C)N(C)C(=O)C[C@@H](C)NC(=O)[C@H](C(C)C)N(C)C(=O)C2(CCCC2)NC(=O)[C@@H]2CCCN2C(=O)[C@H](CCc2ccc(C(F)(F)F)c(Cl)c2)NC(=O)[C@@H](C)N(C)C(=O)[C@H](Cc2ccccc2)N(C)C(=O)[C@@H]2CCCN2C(=O)CN(C)C1=O [Compound 1783] (cyclo([Ac5c][NMeV][d(β3hA)][NMeA]I[Sar]P[NMeF][dNMeA][hPhe(3-Cl-4-CF3)]P)),52
17,CCO[C@@H]1C[C@H]2C(=O)NC3(CCCC3)C(=O)N(C)[C@@H](CC(C)C)C(=O)N(C)[C@H](C(=O)N3CCOCC3)CC(=O)N(C)[C@@H](CC(C)C)C(=O)N[C@@H]([C@@H](C)CC)C(=O)N(C)CC(=O)N(C)CC(=O)N(C)[C@@H](CC3CCCCC3)C(=O)N(C)CC(=O)N[C@@H](CCc3ccc(C(F)(F)F)c(Cl)c3)C(=O)N2C1 [Compound 1785] ([NMeL]I[Sar][Sar][NMeCha][Sar][hPhe(3-Cl-4-CF3)][Hyp](Et)[Ac5c][NMeL][NMeD]-Morpholide; lactam N-11),0.45
18,CC(C)C[C@H]1C(=O)N[C@@H](C(C)C)C(=O)N(C)[C@@H](C)C(=O)N2CC[C@H]2C(=O)N(C)[C@@H](CC2CCCCC2)C(=O)N(C)CC(=O)N[C@@H](CCc2ccc(C(F)(F)F)c(Cl)c2)C(=O)N2CCC[C@H]2C(=O)NC2(CCCC2)C(=O)N(C)[C@@H](C(C)C)C(=O)N(C)[C@H](C(=O)N2CCCCC2)CC(=O)N1C [Compound 1791] ([NMeL]V[NMeA][Aze][NMeCha][Sar][hPhe(3-Cl-4-CF3)]P[Ac5c][NMeV][NMeD]-Piperidide; lactam N-11),3
